Values joined by “and” are separate entries in the source; they are usually repeats but may differ in a detail not shown here. Identical values can stand only once. Counter-ions that a name gives are not always drawn.
How the values were obtained:
Type in all cases: in vivo
Velvetleaf = assay: Post-emergent herbicide activity, greenhouse; conditions: 5.6 g/m^2
Excerpt: (§1) Top soil was placed in pans having holes in the bottom and compacted to a depth of 0.95 to 1.27 cm from the top of the pan. A predetermined number of seeds of each of several plant species or vegetative propagules for perennial plant species were placed on the soil and pressed into the soil surface. The seeds or propagules were covered with soil and leveled. The pans were then placed on a bench in the greenhouse and watered as needed for germination and growth. After the plants reached the desired age (2 to 3 weeks) each pan, except the control pans, was removed to a spraying chamber and sprayed by means of an atomizer. In the spray solution, an emulsifying agent was added to give a spray solution which contains about 0.4% by volume of the emulsifier. The spray solution contained a sufficient amount of the compound of Example 1 to give an application rate of the active ingredient of 2.8 g/m^2 (25 lbs. per acre) and 5.6 g/mz (50 lbs. per acre), while applying a total amount of solution equivalent to 187 ml/m^2 (200 gal per acre). The pans were returned to the greenhouse and watered as before, and the injury to the plants as compared to those in control pans was observed after 14 days after spraying, and again, 27 days after spraying.

Cocklebur = assay: Post-emergent herbicide activity, greenhouse; conditions: 5.6 g/m^2
Excerpt: as §1

Yellow Nutsedge = assay: Post-emergent herbicide activity, greenhouse; conditions: 5.6 g/m^2
Excerpt: as §1

Canada Thistle = assay: Post-emergent herbicide activity, greenhouse; conditions: 5.6 g/m^2
Excerpt: as §1

Rhizone Johnsongrass = assay: Post-emergent herbicide activity, greenhouse; conditions: 5.6 g/m^2
Excerpt: as §1

Downy Brome = assay: Post-emergent herbicide activity, greenhouse; conditions: 5.6 g/m^2
Excerpt: as §1

Quackgrass = assay: Post-emergent herbicide activity, greenhouse; conditions: 5.6 g/m^2
Excerpt: as §1

Barnyardgrass = assay: Post-emergent herbicide activity, greenhouse; conditions: 5.6 g/m^2
Excerpt: as §1

Common Lambsquarters = assay: Post-emergent herbicide activity, greenhouse; conditions: 5.6 g/m^2
Excerpt: as §1

Pennsylvania Smartweed = assay: Post-emergent herbicide activity, greenhouse; conditions: 5.6 g/m^2
Excerpt: as §1

Morningglory = assay: Post-emergent herbicide activity, greenhouse; conditions: 5.6 g/m^2
Excerpt: as §1

[1] = system: fescue (Kentucky bluegrass No. 31); assay: Plant growth regulating activity, greenhouse; conditions: 0.56 g/m^2 (5 lbs. per acre), two weeks
Experimental: Established stands of fescue (Kentucky bluegrass No. 31) in pots having an area of about 100 cm (16 square inches) were trimmed to a uniform height. Duplicate pots were removed to a spraying chamber and sprayed by means of an atomizer as in Example 3. The application rate of the active ingredient was 0.56 g/m^2 (5 lbs. per acre) while applying a total amount of solution equivalent to 187 ml/m^2 (200 gal/acre). The pots were returned to the greenhouse and watered with the controls on a daily basis. After two weeks, the height of the grass was measured.

plants = assay: Biological activity, greenhouse tests according to Examples 3 and 4; conditions: according to the procedure of Examples 3 and 4
Excerpt: as §1, with “The pans were returned to the greenhouse and watered as before, and the injury to the plants as compared to those in control pans was observed after 14 days after spraying, and again, 27 days after spraying.” left out
Established stands of fescue (Kentucky bluegrass No. 31) in pots having an area of about 100 cm (16 square inches) were trimmed to a uniform height. […] After two weeks, the height of the grass was measured. […]

COP1(=O)CN(CC(=O)O)CO1 (stereo not drawn) [Example 1, triethylamine salt of 1,4,2-oxazaphospholidine-4-acetic acid, 2-methoxy-2-oxide]
Plant Response After 14 Days (Velvetleaf; 14 days after spraying): 0 (0-24% inhibition)
Plant Response After 27 Days (Velvetleaf; 27 days after spraying): 0 (0-24% inhibition)
Plant Response After 14 Days (Cocklebur; 14 days after spraying): 1 (25-49% inhibition)
Plant Response After 27 Days (Cocklebur; 27 days after spraying): 1 (25-49% inhibition)
Plant Response After 14 Days (Yellow Nutsedge; 14 days after spraying): 0 (0-24% inhibition)
Plant Response After 27 Days (Yellow Nutsedge; 27 days after spraying): 1 (25-49% inhibition)
Plant Response After 14 Days (Canada Thistle; 14 days after spraying): 0 (0-24% inhibition)
Plant Response After 27 Days (Canada Thistle; 27 days after spraying): 0 (0-24% inhibition)
Plant Response After 14 Days (Rhizone Johnsongrass; 14 days after spraying): 0 (0-24% inhibition)
Plant Response After 27 Days (Rhizone Johnsongrass; 27 days after spraying): 0 (0-24% inhibition)
Plant Response After 14 Days (Downy Brome; 14 days after spraying): 0 (0-24% inhibition)
Plant Response After 27 Days (Downy Brome; 27 days after spraying): 0 (0-24% inhibition)
Plant Response After 14 Days (Quackgrass; 14 days after spraying): 0 (0-24% inhibition)
Plant Response After 27 Days (Quackgrass; 27 days after spraying): 1 (25-49% inhibition)
Plant Response After 14 Days (Barnyardgrass; 14 days after spraying): 1 (25-49% inhibition)
Plant Response After 27 Days (Barnyardgrass; 27 days after spraying): 1 (25-49% inhibition)
Plant Response After 14 Days (Common Lambsquarters; 14 days after spraying): 0 (0-24% inhibition)
Plant Response After 27 Days (Common Lambsquarters; 27 days after spraying): 0 (0-24% inhibition)
Plant Response After 14 Days (Pennsylvania Smartweed; 14 days after spraying): 0 (0-24% inhibition)
Plant Response After 27 Days (Pennsylvania Smartweed; 27 days after spraying): 0 (0-24% inhibition)
Plant Response After 14 Days (Morningglory; 14 days after spraying): 1 (25-49% inhibition)
Plant Response After 27 Days (Morningglory; 27 days after spraying): 1 (25-49% inhibition)
average growth rate of treated fescue relative to controls [1]: 43 % of the controls
growth of treated grass over two-week period ([1]; duplicate pots, control pots grew average 199.58 mm): 80 mm and 90 mm
discoloration or other sign of phytotoxicity ([1]; fescue): did not show any discoloration or other sign of phytotoxicity

COP1(=O)CN(CC(=O)O)CO1 (stereo not drawn) [Example 2, 1,4,2-oxazaphospholidine-4-acetic acid, 2-alkoxy-2-oxide]
biological activity (post-emergent herbicide and plant growth regulating), in words (plants): Satisfactory results are achieved

COP1(=O)CN(CC(=O)O)CO1 (stereo not drawn) [Example 5, Triisopropylamine Salt of 1,4,2-Oxazaphospholidine-4-Acetic Acid, 2-Methoxy-2-Oxide]
biological activity (post-emergent herbicide and plant growth regulating), in words (plants): Satisfactory results are achieved

From patent publication US4889906A, “Amine salts of 1,4,2-oxazaphospholidine-4-acetic acid, 2-alkoxy-2-oxides” (Monsanto Company, priority 1988, dated 1989)
